From paper PMC3465557, “Mixed antagonistic effects of the ginkgolides at recombinant human ρ1 GABAC receptors” (Neuropharmacology, 2012)

What was measured:
Assay type in all cases: cell-based
[1] = target: T1, recombinant human ρ1 GABAC receptors (Homo sapiens, UniProt P24046); assay: GABA concentration–response curves in the presence and absence of ginkgolides, two-electrode voltage clamp in Xenopus oocytes; conditions: for type of antagonism: from GABA concentration–response and inhibition curves
T1 construct: expressed in transfected cells; host or cells: Xenopus laevis oocytes (cRNA injection)
T1 sequence (P24046 22-479): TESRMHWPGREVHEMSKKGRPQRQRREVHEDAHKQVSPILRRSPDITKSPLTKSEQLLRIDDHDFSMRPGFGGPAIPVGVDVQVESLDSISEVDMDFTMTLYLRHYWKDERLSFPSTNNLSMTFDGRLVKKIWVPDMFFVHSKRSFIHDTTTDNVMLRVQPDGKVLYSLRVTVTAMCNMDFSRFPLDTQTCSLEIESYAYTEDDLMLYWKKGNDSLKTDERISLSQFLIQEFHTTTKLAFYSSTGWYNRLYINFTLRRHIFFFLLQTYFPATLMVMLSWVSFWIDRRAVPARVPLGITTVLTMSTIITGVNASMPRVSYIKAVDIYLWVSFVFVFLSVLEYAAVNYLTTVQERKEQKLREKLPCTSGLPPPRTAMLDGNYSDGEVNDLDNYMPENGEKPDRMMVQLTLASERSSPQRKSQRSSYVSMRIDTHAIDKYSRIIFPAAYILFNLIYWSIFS
Protocol: (§1) Human ρ1 GABAC receptor subunit cDNA was linearized using the restriction enzyme Xba 1 and transcribed using the “mMESSAGE mMACHINE” kit (Ambion Inc., Austin, TX, USA). RNA (10 ng/50 nl) was injected into the cytoplasm of defollicated oocytes using a 15–20 μm diameter tip glass micropipette Nanoject injector (Drummond Scientific Co., Broomali, PA, USA). The oocytes were incubated for 2–7 days at 18 °C in ND96 buffer with a twice-daily change of buffer.
(§2) Whole-cell currents from homomeric ρ1 GABAC receptors expressed in oocytes were recorded using two-electrode voltage clamp. Recording microelectrodes were fabricated with a micropipette puller (Narishige Scientific Instrument Lab, Tokyo, Japan) and filled with 3 M KCl solution. Oocytes were clamped at −60 mV and continuously superfused with ND96 buffer. […] […]. Co-applications of ginkgolides were interleaved with test applications of GABA alone to monitor the response throughout the experiment. […] A washout period of 3–5 min was allowed between each application.
(§3) Analysis and curve fitting was performed using GraphPad Prism v3.02 (GraphPad Software, San Diego, California, USA). […] […]. […] Unless otherwise noted, parameters were calculated from individual oocytes and then averaged.

[2] = target: T1, recombinant human ρ1 GABAC receptors; assay: Inhibition curves: ginkgolides co-applied with a fixed GABA concentration, two-electrode voltage clamp in Xenopus oocytes
Protocol: as §1, §2, §3

[3] = target: T1, recombinant human ρ1 GABAC receptors; assay: Use-dependence: repeated co-applications with GABA during extended incubation of ginkgolide; conditions: for use-dependence: repeated co-applications
Protocol: as §2
Fig. 5 Use-dependent effect in the antagonism of ρ1 GABAC receptors by ginkgolides. A. Examples of currents recorded during repeated co-applications of GABA and ginkgolides. […] Each application was separated by a 3-min interval. […]. […] Overall, there was no obvious evidence for use-dependent inhibition by the ginkgolides.

[4] = target: T1, recombinant human ρ1 GABAC receptors; assay: Inhibition and recovery time when ginkgolide is co-applied during the plateau of the GABA-activated current
Protocol: as §2
The recovery time from inhibition (measured as the 10–90% rise interval) was determined from the current responses obtained when ginkgolides A, B and C were co-applied during the plateau of the GABA-activated current (Fig. 6). […].
Fig. 6 Recovery time from ginkgolide inhibition.

[5] = target: T1, recombinant human ρ1 GABAC receptors; assay: Fit of kinetic schemes 1-4 to equilibrium GABA concentration–response curves
From the text: The concentration–response curves were fitted with the different mechanisms of inhibition using a least squares non-linear regression in GraphPad Prism.
The mechanism used (Fig. 7, Scheme 1) is that of [Amin and Weiss (1996)], where there are five equivalent agonist binding sites and three sites need to be occupied to activate the receptor, leading to a single open state. […] This assumes five equivalent agonist binding sites but only three are required to be occupied to activate (open) the channel pore. All subsequent kinetic schemes are derivatives of the linear scheme, by incorporating different possible mechanisms for antagonism by ginkgolides. These are drawn from the cyclic mixed-antagonism mechanism described by [Smart and Constanti (1986)]. Scheme 2 and scheme 3 both assume that ginkgolide binds to a single site in the receptor complex. […] For scheme 4, the equilibrium between the fully-liganded closed and open states is removed, which allows for the possibility that the ginkgolide binds to a separate site in the closed state compared to the open state.
Initially, a cyclic allosteric mechanism (Fig. 7, scheme 2) similar to that of [Smart and Constanti (1986)] was fit to the data. This scheme assumes a single binding site on the receptor complex that has an allosteric effect on all rate constants in the reaction mechanism. The scheme was fitted to the data allowing the agonist equilibrium constant, Ka, to be related to the equilibrium constant in the presence of ginkgolide, Ka′ by a constant ratio, R = Ka/Ka′. Similarly, the opening equilibrium constants E and E′ were related by the ratio, S = E/E′. […] As a test of the mechanism, the parameters obtained from the fit were used to predict the inhibition curves (Fig. 8D–F).
This effectively means that ginkgolide is binding at two separate sites. […] Scheme 4 is therefore functionally similar to scheme 2 with E′ having a value close to zero.

[6] = Hill coefficient of GABA curve with 10 μM antagonist
[7] = Hill coefficient of GABA curve with 30 μM antagonist
[8] = Hill coefficient of GABA curve with 100 μM antagonist
[9] = in the presence of 10 μM ginkgolide
[10] = in the presence of 30 μM ginkgolide
[11] = in the presence of 100 μM ginkgolide

In the case of `C[C@@H]1C(=O)O[C@H]2C[C@@]34[C@H]5C[C@@H](C(C)(C)C)[C@]36[C@@H](OC(=O)[C@@H]6O)O[C@@]4(C(=O)O5)[C@]21O` [Ginkgolide A, ginkgolide A], the “GABA + Ant nH” value [1, 6] is reported as 1.98 ± 0.12, the “GABA + Ant nH” value [1, 7] is reported as 2.25 ± 0.04 and the “GABA + Ant nH” value [1, 8] is reported as 2.60 ± 0.22. For the same compound, the type of antagonism [1] was “mixed antagonists”, the “fold increase in the GABA EC50” value [1, 9] was 1.9 fold and the “fold increase in the GABA EC50” value [1, 10] was 2.3 fold. The “fold increase in the GABA EC50” value [1, 11] was 2.5 fold, the “Max. GABA response” value ([1]; with 10 μM antagonist) was 94.78 ± 0.54 % and the “Max. GABA response” value ([1]; with 30 μM antagonist) was 91.44 ± 0.80 %. For the same compound, the “Max. GABA response” value ([1]; with 100 μM antagonist) was 85.66 ± 1.34 %, the “nH of inhibition curve” value ([2]; 0.5 μM GABA) was −0.99 ± 0.08 and the “nH of inhibition curve” value ([2]; 1.2 μM GABA) was −0.82 ± 0.07. For the same compound, the “nH of inhibition curve” value ([2]; 3.0 μM GABA) was −0.61 ± 0.03, the “nH of inhibition curve” value ([2]; 10 μM GABA) was −0.73 ± 0.04 and the IC50 ([2]; IC50, 0.5 μM GABA) was 5.74 ± 0.17 µM. For the same compound, the IC50 ([2]; IC50, 1.2 μM GABA) was 42.3 ± 5.76 µM, the IC50 ([2]; IC50, 3.0 μM GABA) was 182 ± 12.6 µM and the IC50 ([2]; IC50, 10 μM GABA) was 874 ± 108 µM. For the same compound, the use-dependence ([3]; 5 μM ginkgolide, 1 μM GABA) was “not obviously use-dependent”, the inhibition at 5 µM ([3]; read-out: level of inhibition) was 33.2 ± 1.4% and the “Recovery time (10–90% rise interval)” value ([4]; 1 μM GABA, 5 μM ginkgolide) was 48.4 ± 5.7 s. For the same compound, the inhibition at 5 µM ([4]; 1 μM GABA, 5 μM ginkgolide) was 33.8 ± 3.4%, the “Recovery time (10–90% rise interval)” value ([4]; 3 μM GABA, 5 μM ginkgolide) was 14.3 ± 4.6 s and the inhibition at 5 µM ([4]; 3 μM GABA, 5 μM ginkgolide) was 15.9 ± 1.6%. For the same compound, the “Recovery time (10–90% rise interval)” value ([4]; 3 μM GABA, 50 μM ginkgolide) was 18.4 ± 3.4 s, the inhibition at 50 µM ([4]; 3 μM GABA, 50 μM ginkgolide) was 21.4 ± 1.9% and the Kd ([5]; Kb0, Scheme 2, calculated) was 1.3 µM. The Kd ([5]; Kb0, Scheme 3, calculated) was 1.5 µM, the Kd ([5]; Kb0, Scheme 4, calculated) was 1.3 µM and the Kd ([5]; Kb3, Scheme 2, calculated) was 7.7 µM. It also gave a Kd ([5]; Kb3, Scheme 3, calculated) of 6790 µM, a Kd ([5]; Kb3, Scheme 4, printed with ±SE) of 7.7 ± 1.4 µM and a Kd ([5]; Kb4 (equilibrium constant of ginkgolide, open state), Scheme 2, fitted, Ka fixed 3.2 μM, E fixed 11) of 19.7 ± 3.9 µM. The Kd ([5]; Kb4 (equilibrium constant of ginkgolide, open state), Scheme 3, fitted, Ka fixed 3.2 μM, E fixed 11) was 611 ± 89 µM, the Kd ([5]; Kb4 (equilibrium constant of ginkgolide, open state), Scheme 4, fitted, Ka fixed 3.2 μM, E fixed 11) was 19.7 ± 3.9 µM and the “E′ (opening equilibrium constant with ginkgolide bound)” value ([5]; Scheme 2, calculated) was 4.3. For the same compound, the “Ka′ (agonist equilibrium constant with ginkgolide bound)” value ([5]; Scheme 2, calculated) was 5.7 µM, the “R (= Ka/Ka′)” value ([5]; Scheme 2, fitted) was 0.56 ± 0.03 and the “S (= E/E′)” value ([5]; Scheme 2, fitted) was 2.6 ± 0.2. The “E′ (opening equilibrium constant with ginkgolide bound)” value ([5]; Scheme 3, calculated) was 122, the “Ka′ (agonist equilibrium constant with ginkgolide bound)” value ([5]; Scheme 3, calculated) was 53.3 µM and the “R (= Ka/Ka′)” value ([5]; Scheme 3, fitted) was 0.06 ± 0.05. The “S (= E/E′)” value ([5]; Scheme 3, fitted) was 0.09 ± 0.22, the “Ka′ (agonist equilibrium constant with ginkgolide bound)” value ([5]; Scheme 4, calculated) was 5.7 µM and the “R (= Ka/Ka′)” value ([5]; Scheme 4, fitted) was 0.55 ± 0.03.
ginkgolide B was tested, and the “GABA + Ant nH” value [1, 6] was 1.97 ± 0.10, the “GABA + Ant nH” value [1, 7] was 1.83 ± 0.06 and the “GABA + Ant nH” value [1, 8] was 1.61 ± 0.05. For the same compound, the type of antagonism [1] was “mixed antagonists”, the “fold increase in the GABA EC50” value [1, 9] was 3.2 fold and the “fold increase in the GABA EC50” value [1, 10] was 4.7 fold. The “fold increase in the GABA EC50” value [1, 11] was 7.5 fold, the “Max. GABA response” value ([1]; with 10 μM antagonist) was 80.65 ± 2.18 % and the “Max. GABA response” value ([1]; with 30 μM antagonist) was 75.12 ± 1.39 %. The “Max. GABA response” value ([1]; with 100 μM antagonist) was 69.56 ± 2.48 %, the “fold more potent than ginkgolide A” value ([2]; 0.5 μM GABA) was “approximately 7.7 fold” and the “fold more potent than ginkgolide C” value ([2]; 0.5 μM GABA) was roughly 1.1 fold. The “nH of inhibition curve” value ([2]; 0.5 μM GABA) was −0.87 ± 0.05, the “fold more potent than ginkgolide A” value ([2]; 1.2 μM GABA) was roughly 18 fold and the “fold more potent than ginkgolide C” value ([2]; 1.2 μM GABA) was roughly 2.3 fold. The “nH of inhibition curve” value ([2]; 1.2 μM GABA) was −0.97 ± 0.07, the “fold more potent than ginkgolide A” value ([2]; 3 μM GABA) was roughly 32 fold and the “fold more potent than ginkgolide C” value ([2]; 3 μM GABA) was roughly 3.8 fold. The “nH of inhibition curve” value ([2]; 3.0 μM GABA) was −0.78 ± 0.06, the “fold more potent than ginkgolide A” value ([2]; 10 μM GABA) was roughly 6.7 fold and the “fold more potent than ginkgolide C” value ([2]; 10 μM GABA) was roughly 4 fold. The “nH of inhibition curve” value ([2]; 10 μM GABA) was −0.83 ± 0.06, the “bottom plateau of the inhibition curve” value ([2]; 10 μM GABA, five out of seven oocytes, up to 3 mM) was “approximately 30 % of Imax” and the level of inhibition ([3]; 5 μM ginkgolide, 1 μM GABA, five co-applications after 40 s preincubation) was 61.3 ± 1.7%. For the same compound, the use-dependence ([3]; 5 μM ginkgolide, 1 μM GABA) was “not obviously use-dependent”, the “Inhibition (%)” value ([4]; 1 μM GABA, 5 μM ginkgolide) was 55.5 ± 3.4% and the “Recovery time (10–90% rise interval)” value ([4]; 1 μM GABA, 5 μM ginkgolide) was 42.8 ± 8.6 s. For the same compound, the “Inhibition (%)” value ([4]; 3 μM GABA, 5 μM ginkgolide) was 35.2 ± 6.8%, the “Recovery time (10–90% rise interval)” value ([4]; 3 μM GABA, 5 μM ginkgolide) was 21.3 ± 4.4 s and the “Inhibition (%)” value ([4]; 3 μM GABA, 50 μM ginkgolide) was 54.6 ± 7.5%. For the same compound, the “Recovery time (10–90% rise interval)” value ([4]; 3 μM GABA, 50 μM ginkgolide) was 29.4 ± 3.8 s, the “E′ (opening equilibrium constant with ginkgolide bound)” value ([5]; Scheme 2, calculated) was 1.3 and the “Ka′ (agonist equilibrium constant with ginkgolide bound)” value ([5]; Scheme 2, calculated) was 8.3 µM. The “R (= Ka/Ka′)” value ([5]; Scheme 2, fitted) was 0.39 ± 0.02, the “S (= E/E′)” value ([5]; Scheme 2, fitted) was 8.6 ± 0.6 and the “E′ (opening equilibrium constant with ginkgolide bound)” value ([5]; Scheme 3, calculated) was 1 × 10^−9. For the same compound, the “Ka′ (agonist equilibrium constant with ginkgolide bound)” value ([5]; Scheme 3, calculated) was 12.9 µM, the “R (= Ka/Ka′)” value ([5]; Scheme 3, fitted) was 0.25 ± 0.01 and the “S (= E/E′)” value ([5]; Scheme 3, fitted) was 1.0 × 10^10 ± 1.4 × 10^16. For the same compound, the “Ka′ (agonist equilibrium constant with ginkgolide bound)” value ([5]; Scheme 4, calculated) was 8.3 µM and the “R (= Ka/Ka′)” value ([5]; Scheme 4, fitted) was 0.39 ± 0.02.
